In publication PMC7746945 (Neuro-Oncology, 2020):
Entries after “also recorded” stand apart in the source; their conditions may differ. Read-outs that look alike come from different tables or passages of the source.

What was measured:
[1] = target: T1, MDR1 (Homo sapiens, UniProt P08183); assay: Directional transport of [14C]-olaparib across MDCKII-MDR1 monolayers, with or without ketoconazole; type: in vitro ADME
T1 construct: host or cells: MDCKII (Madin-Darby canine kidney type II) cells stably expressing human MDR1 cDNA
T1 sequence (P08183 whole entry): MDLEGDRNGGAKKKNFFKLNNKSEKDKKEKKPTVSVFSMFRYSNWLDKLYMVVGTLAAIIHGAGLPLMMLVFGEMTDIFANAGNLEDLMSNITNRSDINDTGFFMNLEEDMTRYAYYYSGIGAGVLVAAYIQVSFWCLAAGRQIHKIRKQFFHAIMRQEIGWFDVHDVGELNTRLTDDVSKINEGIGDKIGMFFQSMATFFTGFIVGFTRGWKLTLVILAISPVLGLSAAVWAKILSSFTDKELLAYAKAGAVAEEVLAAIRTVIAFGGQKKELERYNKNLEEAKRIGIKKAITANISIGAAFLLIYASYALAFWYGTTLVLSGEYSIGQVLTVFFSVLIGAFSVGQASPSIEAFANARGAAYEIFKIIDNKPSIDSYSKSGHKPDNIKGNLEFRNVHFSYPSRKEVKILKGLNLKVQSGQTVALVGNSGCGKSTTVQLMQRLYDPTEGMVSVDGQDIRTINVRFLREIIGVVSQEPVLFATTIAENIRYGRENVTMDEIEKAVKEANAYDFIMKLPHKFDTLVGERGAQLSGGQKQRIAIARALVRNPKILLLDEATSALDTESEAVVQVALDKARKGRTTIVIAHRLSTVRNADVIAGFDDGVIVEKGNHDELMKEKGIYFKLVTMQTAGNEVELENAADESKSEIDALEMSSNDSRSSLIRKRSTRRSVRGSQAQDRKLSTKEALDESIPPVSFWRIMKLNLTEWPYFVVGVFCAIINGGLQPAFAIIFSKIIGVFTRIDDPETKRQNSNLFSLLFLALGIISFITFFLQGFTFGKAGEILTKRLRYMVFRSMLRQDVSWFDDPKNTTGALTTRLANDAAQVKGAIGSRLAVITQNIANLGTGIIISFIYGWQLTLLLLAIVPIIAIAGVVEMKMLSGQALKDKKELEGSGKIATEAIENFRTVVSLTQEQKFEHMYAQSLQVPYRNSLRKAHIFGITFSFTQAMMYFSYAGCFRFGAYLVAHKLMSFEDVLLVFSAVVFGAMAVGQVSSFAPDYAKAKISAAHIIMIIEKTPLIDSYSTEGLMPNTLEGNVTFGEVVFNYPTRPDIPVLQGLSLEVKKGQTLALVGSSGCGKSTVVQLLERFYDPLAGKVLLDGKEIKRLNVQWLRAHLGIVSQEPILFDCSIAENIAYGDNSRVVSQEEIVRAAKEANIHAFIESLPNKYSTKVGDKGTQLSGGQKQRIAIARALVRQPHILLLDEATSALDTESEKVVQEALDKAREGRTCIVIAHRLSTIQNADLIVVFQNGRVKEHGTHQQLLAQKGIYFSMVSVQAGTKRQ
Protocol: (§1) Canine kidney epithelial cells, stably expressing human MDR1 cDNA (Madin-Darby canine kidney type II [MDCKII]–MDR1 cells) or empty vector (MDCKII control), were used to model the intact BBB and determine permeability coefficients of (^14C)-olaparib in the presence of ketoconazole (25 μM). Whole body autoradiography was performed on male pigmented rats after single oral administration of [^14C]-olaparib (15 mg/kg; 5 MBq/kg). For autoradiography studies, animal care and experiments were carried out in accordance with AstraZeneca guidelines, which comply with UK standards. […] Xenograft experiments were performed under the relevant UK Home Office Project Licence and carried out with ethical approval from the University of Glasgow under the Animal (Scientific Procedures) Act 1986 and the EU directive 2010. Mice were maintained in individually ventilated cages with environmental enrichment and following the guidelines of ARRIVE (Animal Research: Reporting of In Vivo Experiments). […] Ratiometric t-test analysis determined SER confidence intervals and P-values. Further details are available in the Supplementary Material.
(§2) Apparent permeability coefficients were calculated for apical to basolateral (Papp a‒b) and basolateral to apical transport (Papp b‒a) as described in Methods. […] (B) Single oral doses of 15 mg/kg [14C]-olaparib were administered to male pigmented rats that were subsequently culled, sectioned, and subjected to whole body autoradiography at the timepoints shown. Radioactivity was excluded from the central nervous system in all animals at all timepoints. […] Blood, tumor, and contralateral (non tumor bearing) brain were harvested and snap frozen at the time points shown. […] Note different y-axis scales.
(§3) Monolayers were cultured in Dulbeco’s Modified Eagle Medium (DMEM) supplemented with glucose (4.5 g/L), 10% fetal calf serum, penicillin and streptomycin on semi-permeable filter inserts (Transwell plates 3401, Costar, Cambridge, MA) for three days. Under these conditions MDR1 localises to the apical plasma membrane. Monolayer integrity was assessed by transepithelial electrical resistance (TEER) measurement then inserts washed with Hank’s Balanced Salt Solution (HBSS) and transferred to 12-well plates containing HBSS (to measure apical to basal transport, a – b) or [14C]-olaparib diluted in HBSS (dose solution, to measure basal to apical transport, b – a). After addition of dose solution (a – b) or HBSS (b – a) to the apical chamber, samples of apical and basolateral compartments were collected immediately after dosing and after 120 minutes incubation. Three concentrations of 14C-olaparib were tested (0.1, 1 and 10 µM), each in three replicates. Radioactivity was determined by liquid scintillation counting. […] Transport of olaparib or reference substrate cimetidine was determined in MDCKII-BCRP cells. Apparent permeability coefficients (Papp) were calculated:
(§4) Efflux ratio = Papp b - a /a - b = Papp b - a / Papp a - b (mean)
MDCKII corrected efflux ratio =
Papp b - a /a - b ratio in transfected MDCKII cells
Papp b - a /a - b ratio in MDCKII control cells (mean)

[2] = Olaparib PK in mice bearing intracranial G7 GBM xenografts (mass spectrometry); type: in vivo, CD1 nude mice; conditions: 50 mg/kg
Protocol: as §1, §2

[3] = Clinical PK: olaparib in tumor core, tumor margin and plasma of recurrent GBM patients (LC-MS); type: in vivo, human; conditions: for Kp: human, tumor and plasma, oral, ratio between tumor and plasma olaparib concentrations, surgical patients
Protocol: At neurosurgery, contrast-enhancing tumor regions identified on preoperative MRI scans were targeted for resection. Specimens were assessed by intraoperative cytology; 3 regions of viable, solid tumor from each patient were snap frozen for PK analysis by liquid chromatography mass spectrometry (LC-MS). In the expansion cohort, 5-ALA guided neurosurgery enabled discrimination of fluorescent “core” tissue from nonfluorescent “margin” tissue. Up to 3 tumor margin biopsies were taken from each patient, from each of which half was frozen for PK analysis and half fixed for histology.
100 mg q.d., n = 10; 150 mg q.d., n = 35; 200 mg b.i.d., n = 3. […] All measurements performed by LC-MS.

[4] = Directional transport of [14C]-olaparib across MDCKII control (empty vector) monolayers; type: in vitro ADME, canine; conditions: dog, MDCK
Protocol: as §1, §2, §3, §4

[5] = system: R10 cells; assay: Clonogenic survival radiosensitization assay; type: cell-based, human; conditions: R10, MGMT methylated, 1–5 Gy
Protocol: as §1
(§5) Visible colonies containing at least 50 cells were counted 14–21 days after treatment and surviving fraction calculated. The linear quadratic model was fitted using maximum likelihood estimation and integrated to determine the mean inactivation dose (MID) for each experimental condition.

[6] = system: E2 cells; assay: Clonogenic survival radiosensitization assay; type: cell-based, human; conditions: E2, MGMT methylated, 1–5 Gy
Protocol: as §1, §5

[7] = system: UVW cells; assay: Clonogenic survival radiosensitization assay; type: cell-based, human; conditions: MGMT methylated, 1–5 Gy
Protocol: as §1, §5

[8] = system: T98G cells; assay: Clonogenic survival radiosensitization assay; type: cell-based, human; conditions: MGMT unmethylated, 1–5 Gy
Protocol: as §1, §5

[9] = system: G7 cells; assay: Clonogenic survival radiosensitization assay; type: cell-based, human; conditions: G7, MGMT methylated, 1–5 Gy
Protocol: as §1, §5

[10] = system: G1 cells; assay: Clonogenic survival radiosensitization assay; type: cell-based, human; conditions: G1, MGMT methylated, olaparib 100 nM, 1–5 Gy
Protocol: as §1, §5

[11] = target: T1, MDR1; assay: Directional transport of [14C]-olaparib across MDCKII-MDR1 monolayers, with or without ketoconazole; type: in vitro ADME; remark: listed apart in the source
[12] = MDCK-MDR1, with ketoconazole 25 µM, read-out: Papp b-a + ketoconazole (SD)
[13] = 200 mg b.i.d. for 7 doses before resection, 9 samples from 3 patients
[14] = 21 tumor margin samples, 9 dose expansion patients

**Q.** Which Papp A→B at 120 min, 1 µM ([1]; MDCK-MDR1) does the source give for O=C(c1cc(Cc2n[nH]c(=O)c3ccccc23)ccc1F)N1CCN(C(=O)C2CC2)CC1 [olaparib, 4-[3-(4-cyclopropanecarbonylpiperazine-1-carbonyl)-4-fluorobenzyl]-2H-phthalazin-1-one] here?
**A.** 0.28 ×10⁻⁶ cm/s

**Q.** And the Papp A→B at 120 min, 10 µM ([1]; MDCK-MDR1)?
**A.** 0.58 ×10⁻⁶ cm/s

**Q.** And the Papp B→A at 120 min, 1 µM ([1]; MDCK-MDR1)?
**A.** 40.6 ×10⁻⁶ cm/s

**Q.** What about the Papp B→A at 120 min, 10 µM ([1]; MDCK-MDR1, read-out: Papp b-a (SD)) of the same compound?
**A.** 39.4 ×10⁻⁶ cm/s

**Q.** What about the Papp B→A at 120 min, 1 µM [1, 12] of the same compound?
**A.** 24.1 ×10⁻⁶ cm/s

**Q.** And the Papp B→A at 120 min, 10 µM [1, 12]?
**A.** 17.1 ×10⁻⁶ cm/s

**Q.** What about the “olaparib in contralateral hemisphere” value ([2]; 5 and 24 hours) of the same compound?
**A.** undetectable

**Q.** And the “olaparib in tumor specimens” value ([2]; 5 hours)?
**A.** detectable in one tumor specimen

**Q.** And the concentration at 2 h ([2]; CD1 nude, mouse, contralateral (non-tumor bearing) brain, oral, contralateral (non-tumor bearing) cerebral hemisphere olaparib concentration, median, 50 mg/kg oral gavage)?
**A.** 84 nM

**Q.** What about the concentration at 2 h ([2]; CD1 nude, mouse, contralateral (non-tumor bearing) brain, oral, contralateral (non-tumor bearing) cerebral hemisphere olaparib concentration, range, 50 mg/kg oral gavage) of the same compound?
**A.** 53 to 114 nM

**Q.** And the concentration at 2 h ([2]; CD1 nude, mouse, plasma, oral, plasma olaparib level, median, 50 mg/kg oral gavage)?
**A.** 1590 nM

**Q.** What about the concentration at 5 h ([2]; CD1 nude, mouse, plasma, oral, plasma olaparib level, median, 50 mg/kg oral gavage, 5 hours) of the same compound?
**A.** 230 nM

**Q.** What about the concentration at 2 h ([2]; CD1 nude, mouse, plasma, oral, plasma olaparib level, range, 50 mg/kg oral gavage) of the same compound?
**A.** 773 to 2830 nM

**Q.** And the concentration at 2 h ([2]; CD1 nude, mouse, tumor, po, tumor olaparib concentration, median, intracranial G7 xenograft, 50 mg/kg oral gavage)?
**A.** 347 nM

**Q.** And the concentration at 2 h ([2]; CD1 nude, mouse, tumor, po, tumor olaparib concentration, range, intracranial G7 xenograft, 50 mg/kg oral gavage, 4 mice)?
**A.** 110 to 2780 nM

**Q.** What about the “mean olaparib concentration in stage 1 tumor samples” value [3, 13] of the same compound?
**A.** 471 nM

**Q.** What about the “olaparib concentration in stage 1 tumor samples, range” value [3, 13] of the same compound?
**A.** 164 to 992 nM

**Q.** And the “tumor margin specimens with olaparib detected” value ([3]; 9 patients)?
**A.** 21/21

**Q.** And the “tumor margin olaparib concentration, median” value [3, 14]?
**A.** 512.3 nM

**Q.** And the “tumor margin olaparib concentration, range” value [3, 14]?
**A.** 97 to 1237 nM

**Q.** And the “tumor core specimens with olaparib detected” value ([3]; 27 patients)?
**A.** 71/71

**Q.** And the “tumor core olaparib concentration, range” value ([3]; 71 tumor core samples, 27 surgical patients)?
**A.** 97 to 1374 nM

**Q.** What about the “tumor core olaparib concentration, median” value ([3]; 71 tumor core samples, 27 surgical patients, 3–5 hours after final preoperative dose) of the same compound?
**A.** 496 nM

**Q.** And the Kp ([3]; mean)?
**A.** 0.25

**Q.** What about the Kp ([3]; range) of the same compound?
**A.** 0.01 to 0.9

**Q.** What about the “tumor olaparib concentrations, range in all specimens” value ([3]; tumor core and margin) of the same compound?
**A.** 100 to 1000 nM

**Q.** And the Papp A→B at 120 min, 1 µM [4]?
**A.** 1.66 ×10⁻⁶ cm/s

**Q.** What about the Papp A→B at 120 min, 3 µM [4] of the same compound?
**A.** 2.23 ×10⁻⁶ cm/s

**Q.** And the Papp A→B at 120 min, 10 µM [4]?
**A.** 2.46 ×10⁻⁶ cm/s

**Q.** And the Papp B→A at 120 min, 1 µM [4]?
**A.** 32 ×10⁻⁶ cm/s

**Q.** And the Papp B→A at 120 min, 3 µM [4]?
**A.** 29.7 ×10⁻⁶ cm/s

**Q.** What about the Papp B→A at 120 min, 10 µM [4] of the same compound?
**A.** 28.1 ×10⁻⁶ cm/s

**Q.** And the “SER (95% CI) 100nM” value ([5]; olaparib 100 nM)?
**A.** 1.266 (0.991 - 1.565)

**Q.** What about the “SER (95% CI) 500nM” value ([5]; olaparib 500 nM) of the same compound?
**A.** 1.281 (0.966 - 1.721)

**Q.** What about the “SER (95% CI) 100nM” value ([6]; olaparib 100 nM) of the same compound?
**A.** 1.237 (1.065 - 1.441)

**Q.** What about the “SER (95% CI) 500nM” value ([6]; olaparib 500 nM) of the same compound?
**A.** 1.221 (1.076 - 1.378)

**Q.** And the “SER (95% CI) 100nM” value ([7]; olaparib 100 nM)?
**A.** 1.478 (1.28 - 1.726)

**Q.** And the “SER (95% CI) 500nM” value ([7]; olaparib 500 nM)?
**A.** 1.695 (1.407 - 2.098)

**Q.** And the “SER (95% CI) 100nM” value ([8]; olaparib 100 nM)?
**A.** 1.42 (1.128 - 1.883)

**Q.** And the “SER (95% CI) 500nM” value ([8]; olaparib 500 nM)?
**A.** 1.584 (1.464 - 1.71)

**Q.** What about the “SER (95% CI) 100nM” value ([9]; olaparib 100 nM) of the same compound?
**A.** 1.105 (1.018 - 1.200)

**Q.** What about the “SER (95% CI) 500nM” value ([9]; olaparib 500 nM) of the same compound?
**A.** 1.188 (1.029 - 1.390)

**Q.** And the “SER (95% CI) 100nM” value [10]?
**A.** 1.225 (1.01 - 1.513)

**Q.** What about the Papp A→B at 120 min, 3 µM ([11]; human, MDCK-MDR1) of the same compound?
**A.** 0.53 ×10⁻⁶ cm/s

**Q.** What about the Papp B→A at 120 min, 3 µM ([11]; human, MDCK-MDR1, with ketoconazole 25 µM, read-out: Papp b-a + ketoconazole (SD)) of the same compound?
**A.** 16.3 ×10⁻⁶ cm/s

**Q.** What about the Papp B→A at 120 min, 3 µM ([11]; human, MDCK-MDR1, read-out: Papp b-a (SD)) of the same compound?
**A.** 42.7 ×10⁻⁶ cm/s

**Q.** And the MDR1 substrate status ([11]; olaparib 1–10 µM)?
**A.** substrate for multidrug resistance protein 1; also recorded: substrate for MDR1

**Q.** And the “reduction of apparent permeability of MDCKII-MDR1 cells to olaparib by ketoconazole” value ([11]; olaparib 1–10 µM, ketoconazole 25 µM)?
**A.** 40–62%
